Entries after “also recorded” stand apart in the source; their conditions may differ. Where two headings read alike, the source gives them in different places.
Key:
[1] = In vivo release kinetics of rapamycin and mycophenolic acid from polymer coatings, porcine pharmacokinetics studies
Description: The topcoat is two hundred micro grams.

[2] = In vitro release kinetics of rapamycin from a combination of rapamycin and mycophenolic acid; assay type: in vitro ADME; details: FIG. 55
Description: The in vitro tests were run twice for each coating scenario.

[3] = In vivo release kinetics of cladribine and rapamycin from coated Bx Velocity stents in Yorkshire pigs; design: species or system Yorkshire pig
Description: FIG. 61 is a graphical representation of the in vivo release kinetics of cladribine from a polymeric coating on Bx Velocity® stents, available from Cordis Corporation, implanted in a Yorkshire pig. The basecoat comprises an 85/15 ratio of PVDF and HFP and cladribine for a total combined weight of one thousand eight hundred micrograms (cladribine comprising thirty percent of the total weight). […]
(§1) The basecoat is applied to Bx Velocity® stents and implanted into Yorkshire pigs.
as §1

[4] = system: non-synchronized cultured human coronary artery smooth muscle cells; test: Anti-proliferative activity in non-synchronized cultured human coronary artery smooth muscle cells stimulated with two percent fetal bovine serum; assay type: cell-based
Description: The multiple curves represent various concentrations of mycophenolic acid ranging from zero to one thousand nanomolar concentrations.
FIG. 58 illustrates, in graphical format, the anti-proliferative activity of cladribine in non-synchronized cultured human coronary artery smooth muscle cells stimulated with two percent fetal bovine serum.
The multiple curves represent various concentrations of cladribine ranging from zero to nine hundred nanomolar concentrations.

[5] = system: synchronized cultured human coronary artery smooth muscle cells; test: Anti-proliferative activity in synchronized cultured human coronary artery smooth muscle cells stimulated with two percent fetal bovine serum; assay type: cell-based; details: topotecan zero to three hundred nanomolar, FIG. 64
Description: (§2) The multiple curves represent various concentrations of topotecan ranging from zero to three hundred nanomolar concentrations.

[6] = system: cell viability; test: Separate cell viability assay of topotecan; assay type: cell-based; details: concentrations up to one micromolar
Description: as §2

[7] = system: human coronary artery smooth muscle cell; details: Brehm et al., 2000; cited from earlier work
[8] = system: human coronary artery smooth muscle cell; test: Inhibition of coronary artery smooth muscle cell proliferation by trichostatin A, in vitro cell culture; assay type: cell-based
Description: FIG. 51 is a graph of the inhibition of coronary artery smooth muscle cells by trichostatin A in a cell culture study.

[9] = system: tumor cell lines; details: tumor cell lines (Woo et al., 2002); cited from earlier work
[10] = cited from earlier work
[11] = system: human smooth muscle cells; test: Inhibition of human vascular cell proliferation with cladribine, smooth muscle cells, PDGF-stimulated cell count; assay type: cell-based; details: from IC50 values 23 and 40 nanomolar
Protocol: After twenty-four hours, the growth medium was changed and fresh medium containing 10 ng/ml platelet-derived growth factor AB (PDGF AB; LIFE Technologies), as well as various concentrations of cladribine (0.001-10,000 nM) were added with triplicate wells. Medium was replaced with fresh cladribine-containing medium after three days. On day six, cells were detached by trypsinization to yield a cell suspension, lightly centrifuged to pellet and then counted manually using a Neubauer hemocytometer system. Cell viability was assessed by trypan blue exclusion.

[12] = In vitro release kinetics of cladribine from PVDF/HFP coatings in twenty-five percent ethanol/water; assay type: in vitro ADME; details: room temperature
Description: FIG. […] The basecoat comprises a ratio of PVDF/ HFP (85/15) and cladribine. Cladribine comprises thirty percent of the basecoat. The topcoat also comprises an 85/15 ratio of PVDF and HFP, but no cladribine. Curve 5902 represents the release kinetics of cladribine wherein the basecoat weight is six hundred micrograms (one hundred eighty micrograms cladribine). Curve 5904 represents the release kinetics of cladribine wherein the basecoat weight is one thousand eight hundred micrograms (five hundred forty micrograms cladribine). Curve 5906 represents the release kinetics of cladribine wherein the basecoat weight is six hundred micrograms (one hunded eighty micrograms cladribine) and the topcoat weight is one hundred micrograms. Curve 5908 represents the release kinetics of cladribine wherein the basecoat weight is one thousand eight hundred micrograms (five hundred forty micrograms cladribine) and the topcoat is three hundred micrograms. Curve 5910 represents the release kinetic of cladribine wherein the basecoat weight is six hundred micrograms (one hundred eighty micrograms cladribine) and the topcoat is three hundred micrograms.
FIG. 60 is a graphical representation of the in vitro release kinetics of cladribine from a sterile PVDF/HFP coating incorporated in a twenty-five percent ethanol/water release medium at room temperature. […]

With `CO[C@H]1C[C@@H]2CC[C@@H](C)[C@@](O)(O2)C(=O)C(=O)N2CCCC[C@H]2C(=O)O[C@H]([C@H](C)C[C@@H]2CC[C@@H](O)[C@H](OC)C2)CC(=O)[C@H](C)/C=C(\C)[C@@H](O)[C@@H](OC)C(=O)[C@H](C)C[C@H](C)/C=C/C=C/C=C/1C` [Rapamycin, rapamycin] as the molecule, how does the “in vivo release of rapamycin from EVA/BMA basecoat, effect of BMA topcoat” value ([1]; 600 μg basecoat with 180 μg rapamycin and 180 μg mycophenolic acid, no, 100 or 200 μg BMA topcoat, FIG. 53) read?
The value was “BMA topcoat does slow the release of rapamycin from the basecoat”.

And the “in vivo release rate of rapamycin compared with mycophenolic acid” value ([1]; PVDF basecoat 600 μg with PVDF topcoat 200 μg, FIG. 56)?
Its value is “slower release rate than that of mycophenolic acid”.

What about the “in vitro release of rapamycin from EVA/BMA basecoat, effect of BMA topcoat” value ([2]; 600 μg basecoat with 180 μg rapamycin and 180 μg mycophenolic acid) of the same molecule?
Its value is “BMA topcoat does slow the release of rapamycin from the basecoat in in vitro testing”.

What about the “in vitro release rates of rapamycin compared with in vivo” value ([2]; EVA/BMA basecoat) of the same molecule?
Its value is “release rates are faster than in the in vivo testing”.

And the “in vivo release rates of rapamycin from rapamycin/cladribine EVA/BMA basecoats” value ([3]; three rapamycin/cladribine loadings, 200 μg BMA topcoat, Yorkshire pigs, FIG. 62)?
Its value is “substantially similar to one another”.

What does the source list for `COc1c(C)c2c(c(O)c1C/C=C(\C)CCC(=O)O)C(=O)OC2` [mycophenolic acid]?
effect of added mycophenolic acid on the anti-proliferative rapamycin dose response curve ([4]; mycophenolic acid zero to one thousand nanomolar, FIG. 52): potentiates the anti-proliferative activity of rapamycin; in vivo release of mycophenolic acid from EVA/BMA basecoat, effect of BMA topcoat ([1]; 600 μg basecoat with 180 μg rapamycin and 180 μg mycophenolic acid, no, 100 or 200 μg BMA topcoat, FIG. 54): BMA topcoat does slow the release of mycophenolic acid from the basecoat; in vivo elution of mycophenolic acid compared with rapamycin ([1]; EVA/BMA basecoat, FIG. 53 and 54): elutes more completely over a shorter duration than the rapamycin

Which results are given for `CC[C@@]1(O)C(=O)OCc2c1cc1n(c2=O)Cc2cc3c(CN(C)C)c(O)ccc3nc2-1` [Topotecan, topotecan]?
effect of added topotecan on the anti-proliferative rapamycin dose response curve [5]: potentiate the anti-proliferative activity of rapamycin; also recorded: increases the percent inhibition of rapamycin alone; cytotoxicity in cell viability assay [6]: non-cytotoxic; inhibition of human coronary artery smooth muscle cell proliferation [7]: inhibit human coronary artery smooth muscle cell proliferation

Which results are given for `CC(/C=C/C(=O)NO)=C\[C@@H](C)C(=O)c1ccc(N(C)C)cc1` [trichostatin A]?
inhibition of human coronary artery smooth muscle cell proliferation ([8]; FIG. 51): completely inhibit; IC50 ([8]; read-out: anti-proliferative IC50): ~6 nM; anti-proliferative IC50 [9]: low nM range

For `CC[C@@]1(O)C(=O)OCc2c1cc1n(c2=O)Cc2cc3ccccc3nc2-1` [Camptothecin, camptothecin], which lipid solubility [10] is on record?
The lipid solubility was “high lipid solubility”.

And the water solubility [10]?
Its water solubility is “poor water solubility”.

With `Nc1nc(Cl)nc2c1ncn2[C@H]1C[C@H](O)[C@@H](CO)O1` [Cladribine, 2-chlorodeoxyadenosine] as the molecule, how does the “potency as inhibitor of smooth muscle cells relative to endothelial cells” value [11] read?
Its value is “approximately twice as potent”.

What about the “inhibition of human coronary artery smooth muscle cell proliferation” value ([4]; cladribine alone, FIG. 58) of the same molecule?
Its value is “completely inhibits”.

What about the “effect of added cladribine on the anti-proliferative rapamycin dose response curve” value ([4]; cladribine zero to nine hundred nanomolar, FIG. 57) of the same molecule?
Its value is “potentiate the anti-proliferative activity of rapamycin; also recorded: increases the percent inhibition of rapamycin alone”.

And the “in vitro release rate of cladribine, effect of topcoat weight” value ([12]; non-sterile PVDF/HFP (85/15) coatings, FIG. 59)?
Its value is “an increase in topcoat weight or thickness led to a decrease in the release rate of cladribine”.

What about the “in vitro release rate of cladribine, effect of topcoat” value ([12]; sterile PVDF/HFP coating, FIG. 60) of the same molecule?
The value was “a three-times topcoat led to a drastic decrease of release rate”.

What about the “in vivo elution of cladribine compared with rapamycin” value ([3]; EVA/BMA basecoat, 200 μg BMA topcoat, Yorkshire pigs, FIG. 63) of the same molecule?
The value was “elutes more rapidly than rapamycin”.

And the “in vivo elution of cladribine over time” value ([3]; PVDF/HFP 85/15 basecoat 1800 μg (thirty percent cladribine), 300 μg topcoat, Yorkshire pig, FIG. 61)?
The value was “after the first day, the elution of cladribine levels off significantly”.
